Experiments:
Assay type in all cases: cell-based
[1] = test system: human chronic lymphocytic leukemia-derived MEC-1 cells; experiment: Growth inhibition test on human chronic lymphocytic leukemia-derived MEC-1 cells (WST-1, % viability); conditions: test compound 10 μmol/L, 72 hours, cells without test compound = 100%
Protocol: Ten thousand cells of human chronic lymphocytic leukemia-derived MEC-1 were inoculated into each well of a 96-well microplate (manufactured by Nunc Corp.), and using RPMI1640 medium (culture medium) containing 10% FCS, preculturing was performed in a 5% carbon dioxide incubator at 37° C. for 1 hour. A DMSO solution of each test compound prepared in a concentration of 10 mmol/L was diluted with the culture medium to a final concentration of 10 μmol/L, and the diluted solution was added to each well. The individual wells were further cultured in the 5% carbon dioxide incubator at 37° C. for 72 hours. After completion of the culturing, 10 μL of WST-1 labeled mixture (manufactured by Roche Diagnostic Corp.) was added to each well, and culturing was performed in the 5% carbon dioxide incubator at 37° C. for 3 hours. Using a microplate spectrophotometer (M-SPmax 250; manufactured by Molecular Devices Corp.), the absorbance of each well was measured at 450 nm and 655 nm. The value obtained by subtracting the absorbance at 450 nm from the absorbance at 655 nm (absorbance difference) was calculated for each well. The value for cells not incorporated with a test compound was designated as 100%, and the value at a well not containing cells was designated as 0%. By comparing these values with the absorbance difference obtained at the well in which each test compound was added, the cell viability (% viability) after treatment with the test compound was calculated.

[2] = test system: human multiple myeloma NCI-H929 cells; experiment: Growth inhibition test on human multiple myeloma NCI-H929 cells (WST-1, % viability); conditions: test compound 10 μmol/L, cells without test compound = 100%
Protocol: (§1) Ten thousand cells of human multiple myeloma NCI-H929 were inoculated into each well of a 96-well microplate (manufactured by Nunc Corp.), and using RPMI medium (culture medium) containing 10% FCS, preculturing was performed in a 5% carbon dioxide incubator at 37° C. for 24 hours. A DMSO solution of each test compound prepared in a concentration of 10 mmol/L was diluted with the culture medium to a final concentration of 10 μmol/L, and the diluted solution was added to each well. The individual wells were further cultured in the 5% carbon dioxide incubator at 37° C. for 72 hours. After completion of the culturing, 10 μL of WST-1 labeled mixture (manufactured by Roche Diagnostic Corp.) was added to each well, and culturing was performed in the 5% carbon dioxide incubator at 37° C. for 2 hours. Using a microplate spectrophotometer (SpectraMax 340PC384; manufactured by Nihon Molecular Devices), the absorbance of each well was measured at 450 nm and 655 nm. The value obtained by subtracting the absorbance at 450 nm from the absorbance at 655 nm (absorbance difference) was calculated for each well. The value for cells not incorporated with a test compound was designated as 100%, and the value at a well not containing cells was designated as 0%. By comparing these values with the absorbance difference obtained at the well in which each test compound was added, the cell viability (% viability) after treatment with the test compound was calculated.

[3] = test system: human prostate cancer 22Rv1 cells; experiment: Growth inhibition test on human prostate cancer 22Rv1 cells (WST-1, % viability); conditions: test compound 10 μmol/L, 72 hours, cells without test compound = 100%
Protocol: as §1, with “Five” for “Ten”, “prostate cancer 22Rv1” for “multiple myeloma NCI-H929”, “RPMI1640” for “RPMI”, “(Model 550;” for “(SpectraMax 340PC384;”, “Bio-Rad),” for “Nihon Molecular Devices),”

[4] = test system: human renal cancer OS-RC-2 cells; experiment: Growth inhibition test on human renal cancer OS-RC-2 cells (WST-1, % viability); conditions: test compound 10 μmol/L, 72 hours, cells without test compound = 100%
Protocol: as §1, with “One” for “Ten”, “renal cancer OS-RC-2” for “multiple myeloma NCI-H929”, “RPMI1640” for “RPMI”, “(Model 550;” for “(SpectraMax 340PC384;”, “Bio-Rad),” for “Nihon Molecular Devices),”

[5] = test system: human acute myelocytic leukemia MV4; 11 cells; experiment: Growth inhibition test on human acute myelocytic leukemia MV4; 11 cells (WST-1, % viability); conditions: test compound 10 μmol/L, cells without test compound = 100%
Protocol: as §1, with “human acute myelocytic leukemia MV4; 11” for “human multiple myeloma NCI-H929”, “using IMDM” for “using RPMI”, “for 1 hour.” for “for 2 hours.”

Structure (SMILES): CCc1c(O)cc(O)c(C(=O)c2ccc(OC)cc2)c1CC(=O)N(CCO)CCO [Compound 13]
- Viability of tumor cells (% viability), Human chronic lymphocytic leukemia MEC-1 cells [1]: 7%
- Viability of tumor cells (% viability), Human multiple myeloma NCI-H929 cells [2]: 0%
- Viability of tumor cells (% viability), Human prostate cancer 22Rv1 cells [3]: 6%
- Viability of tumor cells (% viability), Human renal cancer OS-RC-2 cells [4]: 66%
- Viability of tumor cells (% viability), Human acute myelocytic leukemia MV4; 11 cells [5]: 0%

Structure (SMILES): CCc1c(O)cc(O)c(C(=O)c2ccc(OC)cc2)c1CC(=O)N(C)Cc1cccnc1 [Compound 16]
- Viability of tumor cells (% viability), Human chronic lymphocytic leukemia MEC-1 cells [1]: 3%
- Viability of tumor cells (% viability), Human multiple myeloma NCI-H929 cells [2]: 0%
- Viability of tumor cells (% viability), Human prostate cancer 22Rv1 cells [3]: 5%
- Viability of tumor cells (% viability), Human renal cancer OS-RC-2 cells [4]: 17%
- Viability of tumor cells (% viability), Human acute myelocytic leukemia MV4; 11 cells [5]: 0%

Structure (SMILES): CCc1c(O)cc(O)c(C(=O)c2ccc(OC)cc2)c1CC(=O)N1CCN(c2ccccc2C#N)CC1 [Compound 17]
- Viability of tumor cells (% viability), Human chronic lymphocytic leukemia MEC-1 cells [1]: 4%
- Viability of tumor cells (% viability), Human multiple myeloma NCI-H929 cells [2]: 0%
- Viability of tumor cells (% viability), Human prostate cancer 22Rv1 cells [3]: 5%
- Viability of tumor cells (% viability), Human renal cancer OS-RC-2 cells [4]: 20%
- Viability of tumor cells (% viability), Human acute myelocytic leukemia MV4; 11 cells [5]: 0%

Structure (SMILES): CCc1c(O)cc(O)c(C(=O)c2ccc(OC)cc2)c1CC(=O)N1CCN(c2ncccn2)CC1 [Compound 32]
- Viability of tumor cells (% viability), Human chronic lymphocytic leukemia MEC-1 cells [1]: 4%
- Viability of tumor cells (% viability), Human multiple myeloma NCI-H929 cells [2]: 0%
- Viability of tumor cells (% viability), Human prostate cancer 22Rv1 cells [3]: 5%
- Viability of tumor cells (% viability), Human renal cancer OS-RC-2 cells [4]: 17%
- Viability of tumor cells (% viability), Human acute myelocytic leukemia MV4; 11 cells [5]: 0%

Structure (SMILES): CCc1c(O)cc(O)c(C(=O)c2ccc(OC)cc2)c1CC(=O)N(CCO)CCOC [Compound 33]
- Viability of tumor cells (% viability), Human chronic lymphocytic leukemia MEC-1 cells [1]: 4%
- Viability of tumor cells (% viability), Human multiple myeloma NCI-H929 cells [2]: 0%
- Viability of tumor cells (% viability), Human prostate cancer 22Rv1 cells [3]: 5%
- Viability of tumor cells (% viability), Human renal cancer OS-RC-2 cells [4]: 18%
- Viability of tumor cells (% viability), Human acute myelocytic leukemia MV4; 11 cells [5]: 0%

Structure (SMILES): CCc1c(O)cc(O)c(C(=O)c2ccc(OC)cc2)c1CC(=O)N1CCc2cc(OC)c(OC)cc2C1 [Compound 38]
- Viability of tumor cells (% viability), Human chronic lymphocytic leukemia MEC-1 cells [1]: 4%
- Viability of tumor cells (% viability), Human multiple myeloma NCI-H929 cells [2]: 0%
- Viability of tumor cells (% viability), Human prostate cancer 22Rv1 cells [3]: 4%
- Viability of tumor cells (% viability), Human renal cancer OS-RC-2 cells [4]: 18%
- Viability of tumor cells (% viability), Human acute myelocytic leukemia MV4; 11 cells [5]: 0%

Structure (SMILES): CCc1c(O)cc(O)c(C(=O)c2ccc(OC)c(OC)c2)c1CC(=O)N1CCN(c2ccccc2)CC1 [Compound 41]
- Viability of tumor cells (% viability), Human chronic lymphocytic leukemia MEC-1 cells [1]: 4%
- Viability of tumor cells (% viability), Human multiple myeloma NCI-H929 cells [2]: 0%
- Viability of tumor cells (% viability), Human prostate cancer 22Rv1 cells [3]: 5%
- Viability of tumor cells (% viability), Human renal cancer OS-RC-2 cells [4]: 18%
- Viability of tumor cells (% viability), Human acute myelocytic leukemia MV4; 11 cells [5]: 0%

Structure (SMILES): CCc1c(O)cc(O)c(C(=O)c2ccc(OC)c(OC)c2)c1CC(=O)N(CCO)CCOC [Compound 56]
- Viability of tumor cells (% viability), Human chronic lymphocytic leukemia MEC-1 cells [1]: 4%
- Viability of tumor cells (% viability), Human multiple myeloma NCI-H929 cells [2]: 0%
- Viability of tumor cells (% viability), Human prostate cancer 22Rv1 cells [3]: 5%
- Viability of tumor cells (% viability), Human renal cancer OS-RC-2 cells [4]: 18%
- Viability of tumor cells (% viability), Human acute myelocytic leukemia MV4; 11 cells [5]: 0%

Structure (SMILES): CCc1c(O)cc(O)c(C(=O)c2ccc(OC)cc2)c1CC(=O)N1CCC(CO)CC1 [Compound 61]
- Viability of tumor cells (% viability), Human chronic lymphocytic leukemia MEC-1 cells [1]: 5%
- Viability of tumor cells (% viability), Human multiple myeloma NCI-H929 cells [2]: 0%
- Viability of tumor cells (% viability), Human prostate cancer 22Rv1 cells [3]: 5%
- Viability of tumor cells (% viability), Human renal cancer OS-RC-2 cells [4]: 25%
- Viability of tumor cells (% viability), Human acute myelocytic leukemia MV4; 11 cells [5]: 0%

Structure (SMILES): CCc1c(O)cc(O)c(C(=O)c2ccc(OC)cc2)c1CC(=O)N(CCO)Cc1ccco1 [Compound 69]
- Viability of tumor cells (% viability), Human chronic lymphocytic leukemia MEC-1 cells [1]: 4%
- Viability of tumor cells (% viability), Human multiple myeloma NCI-H929 cells [2]: 0%
- Viability of tumor cells (% viability), Human prostate cancer 22Rv1 cells [3]: 5%
- Viability of tumor cells (% viability), Human renal cancer OS-RC-2 cells [4]: 16%
- Viability of tumor cells (% viability), Human acute myelocytic leukemia MV4; 11 cells [5]: 0%

Structure (SMILES): CCc1c(O)cc(O)c(C(=O)c2ccc(OC(F)(F)F)cc2)c1CC(=O)N(CCO)CCOC [Compound 88]
- Viability of tumor cells (% viability), Human chronic lymphocytic leukemia MEC-1 cells [1]: 5%
- Viability of tumor cells (% viability), Human multiple myeloma NCI-H929 cells [2]: 0%
- Viability of tumor cells (% viability), Human prostate cancer 22Rv1 cells [3]: 6%
- Viability of tumor cells (% viability), Human renal cancer OS-RC-2 cells [4]: 17%
- Viability of tumor cells (% viability), Human acute myelocytic leukemia MV4; 11 cells [5]: 0%

Reference: patent US20090042883A1, “ANTITUMOR AGENT” (KYOWA HAKKOKOGYO CO., priority 2005, published 2009)
